Reference: US20120095060A1, “METHODS AND COMPOSITIONS OF MITOGEN-ACTIVATED PROTEIN KINASE (MAPK) PATHWAY INHIBITORS FOR TREATING PULMONARY FIBROSIS” (priority 2010, published 2012)

How the values were obtained:
[1] = test system: TGF-α-induced cellular proliferation; assay: Epithelial and mesenchymal proliferation in lung sections of CCSP/TGF-α mice; assay type: in vivo; settings: twice daily by gavage, 4 days of TGF-α induction
Protocol: ARRY was administered to CCSP/TGF-α mice (i.e., mice expressing TGF-α in the epithelium, under control of the doxycycline (Dox)-regulatable Clara cell secretory protein promoter) twice daily by gavage, with the first dose at the time of TGF-α induction with doxycycline. Mice were sacrificed after 4 days of TGF-α induction and ARRY administration.
(§1) Administration of ARRY142886: ARRY142886 (ARRY) is a potent, highly specific, allosteric inhibitor of MEK1/2. ARRY is a second generation MEK inhibitor that targets the Ras-Raf-MEK-ERK pathway. ARRY was administered to mice twice daily by gavage, with the first dose at the time of TGF-α induction with doxycycline. Mice were then anesthetized (Isoflurane; Abbott Labs, Chicago, Ill.), and 37.5 mg/kg sterile ARRY142886 was administered by gavage using a 20 gauge feeding catheter (Harvard Apparatus, Holliston, Mass.). Mice were treated with vehicle or ARRY twice daily for up to 4 weeks. Mice were weighed at the beginning of the study and at weekly intervals.
Lung Histology and Immunohistochemistry: Mice were killed with pentobarbital sodium (65 mg/ml) euthanasia solution (Fort Dodge Animal Health, Fort Dodge, Iowa), and lungs were inflation fixed using 4% paraformaldehyde at 25 cm H2O of pressure, and then allowed to fix overnight at 4° C. […]

[2] = test system: established TGF-α-induced pulmonary fibrosis; assay: Rescue study of established fibrosis: lung histology (trichrome stain); assay type: in vivo; settings: CCSP/TGF-α mice, 8 weeks total Dox, treatment during last 4 weeks
Protocol: To determine whether the ERK/MAPK pathway mediates the progression of established fibrosis, CCSP/TGFα mice were treated with ARRY following 4 weeks of Dox, while remaining on Dox for an additional 4 weeks (8 weeks total Dox, 4 week ARRY). Controls included CCSP/TGFα mice treated with vehicle while remaining on Dox an additional 4 weeks (8 weeks total Dox, 4 week vehicle). CCSP/TGFα mice began losing body weight after 4 weeks of Dox. […] See FIG. 6, illustrating that TGF-α was induced with doxycycline for 8 weeks in transgenic mice. ARRY added after 4 weeks of TGF-α expression attenuated weight loss, compared to vehicle-treated mice. […] See FIG. 8, illustrating that ARRY prevents progression of TGF-α induced fibrosis as assessed by lung histology using a trichrome stain. In FIG. 8, a representative sample from 4 mice per group includes low power (4×) and higher power (10×) of pleural fibrosis. […] Lung Histology and Immunohistochemistry: Mice were killed with pentobarbital sodium (65 mg/ml) euthanasia solution (Fort Dodge Animal Health, Fort Dodge, Iowa), and lungs were inflation fixed using 4% paraformaldehyde at 25 cm H2O of pressure, and then allowed to fix overnight at 4° C. Fixed lungs were then washed with phosphate-buffered saline (PBS), dehydrated through a graded series of ethanols, and processed for paraffin embedding. […]

[3] = test system: TGF-α-induced pulmonary fibrosis; assay: Prevention study: lung mechanics in TGF-α-induced pulmonary fibrosis; assay type: in vivo; settings: CCSP/TGF-α mice, twice daily for 4 weeks from time of Dox, vs vehicle
Text: To examine if ARRY prevented the physiologic effects of TGF-α-induced lung fibrosis, CCSP/TGF-α mice were given ARRY twice daily for 4 weeks while TGF-α was induced. […] More specifically, FIG. 3 illustrates that ARRY prevents TGF-α-mediated alterations in lung mechanics (*=p<0.05 compared to vehicle and ARRY-treated mice). […] Representative samples from four mice per group include low power (4×) and higher power (10×) of pleural fibrosis.
To induce TGF-α expression, adult transgenic mice (8-12 weeks old) were placed on Doxycycline-containing drinking water (0.5 mg/ml) and food (62.5 mg/kg). Dox-containing water was replaced three times per week.
Administration of ARRY142886: ARRY142886 (ARRY) is a potent, highly specific, allosteric inhibitor of MEK1/2. ARRY is a second generation MEK inhibitor that targets the Ras-Raf-MEK-ERK pathway. ARRY was administered to mice twice daily by gavage, with the first dose at the time of TGF-α induction with doxycycline. […]
(§2) Pulmonary Mechanics: Lung mechanics were assessed on anesthetized mice using a computerized Flexi Vent system (SCIREQ, Montreal, Canada). […] The ventilation mode was changed to forced oscillatory signal (0.5-19.6 Hz), and respiratory impedance was measured. […]

[4] = test system: TGF-α-induced pulmonary fibrosis; assay: Prevention study: total lung collagen (Sircol Collagen Assay); assay type: in vivo; settings: CCSP/TGF-α mice, twice daily for 4 weeks from time of Dox
Text: To examine if ARRY prevented the physiologic effects of TGF-α-induced lung fibrosis, CCSP/TGF-α mice were given ARRY twice daily for 4 weeks while TGF-α was induced. […] More specifically, FIG. 3 illustrates that ARRY prevents TGF-α-mediated alterations in lung mechanics (*=p<0.05 compared to vehicle and ARRY-treated mice). […] Representative samples from four mice per group include low power (4×) and higher power (10×) of pleural fibrosis. […] To induce TGF-α expression, adult transgenic mice (8-12 weeks old) were placed on Doxycycline-containing drinking water (0.5 mg/ml) and food (62.5 mg/kg). Dox-containing water was replaced three times per week. Administration of […]) is a potent, highly specific, allosteric inhibitor of MEK1/2. ARRY is a second generation MEK inhibitor that targets the Ras-Raf-MEK-ERK pathway. ARRY was administered to mice twice daily by gavage, with the first dose at the time of TGF-α induction with doxycycline. Mice were then anesthetized (Isoflurane; Abbott Labs, Chicago, Ill.), and 37.5 mg/kg sterile ARRY142886 was administered by gavage using a 20 gauge feeding catheter (Harvard Apparatus, Holliston, Mass.). […] Total Lung Collagen: Total lung collagen was determined by measuring total soluble collagen (Sircol Collagen Assay, Biocolor, Ireland). […] The optical density measured with a spectrophotometer (540 nm).

[5] = test system: TGF-α-induced pulmonary fibrosis; assay: Prevention study: lung histology (trichrome stain); assay type: in vivo, mice
Text: To examine if ARRY prevented the physiologic effects of TGF-α-induced lung fibrosis, CCSP/TGF-α mice were given ARRY twice daily for 4 weeks while TGF-α was induced. […] More specifically, FIG. 3 illustrates that ARRY prevents TGF-α-mediated alterations in lung mechanics (*=p<0.05 compared to vehicle and ARRY-treated mice). […] Representative samples from four mice per group include low power (4×) and higher power (10×) of pleural fibrosis. […] To induce TGF-α expression, adult transgenic mice (8-12 weeks old) were placed on Doxycycline-containing drinking water (0.5 mg/ml) and food (62.5 mg/kg). Dox-containing water was replaced three times per week. Administration of […]) is a potent, highly specific, allosteric inhibitor of MEK1/2. ARRY is a second generation MEK inhibitor that targets the Ras-Raf-MEK-ERK pathway. ARRY was administered to mice twice daily by gavage, with the first dose at the time of TGF-α induction with doxycycline. Mice were then anesthetized (Isoflurane; Abbott Labs, Chicago, Ill.), and 37.5 mg/kg sterile ARRY142886 was administered by gavage using a 20 gauge feeding catheter (Harvard Apparatus, Holliston, Mass.). Mice were treated with vehicle or ARRY twice daily for up to 4 weeks. Mice were weighed at the beginning of the study and at weekly intervals. […]

[6] = test system: established TGF-α-induced pulmonary fibrosis; assay: Rescue study of established fibrosis: lung mechanics; assay type: in vivo; settings: CCSP/TGF-α mice, 8 weeks total Dox, treatment during last 4 weeks, vs vehicle
Protocol: (§3) To determine whether the ERK/MAPK pathway mediates the progression of established fibrosis, CCSP/TGFα mice were treated with ARRY following 4 weeks of Dox, while remaining on Dox for an additional 4 weeks (8 weeks total Dox, 4 week ARRY). Controls included CCSP/TGFα mice treated with vehicle while remaining on Dox an additional 4 weeks (8 weeks total Dox, 4 week vehicle). CCSP/TGFα mice began losing body weight after 4 weeks of Dox. […] See FIG. 6, illustrating that TGF-α was induced with doxycycline for 8 weeks in transgenic mice. ARRY added after 4 weeks of TGF-α expression attenuated weight loss, compared to vehicle-treated mice.
See FIG. 7, illustrating that TGF-α was induced with doxycycline for 8 weeks in CCSP/TGF-α transgenic mice. ARRY added after 4 weeks of TGF-α expression prevented progression of alterations in lung mechanics compared to vehicle-treated mice. *=p<0.05 compared to vehicle control CSP/− mice. *#=p<0.05 compared to CCSP/TGF-α mice.
as §2

[7] = test system: phosphorylation of ERK1/2; assay: Western blot of lung homogenates for ERK1/2 phosphorylation in CCSP/TGF-α mice; assay type: in vivo; settings: twice daily by gavage, 4 days of TGF-α induction, vs vehicle
Protocol: Western Blots: Western blot analysis was performed on lung homogenates of CCSP/TGF-α mice treated with 4 days of Dox. Controls were littermate single transgene CCSP/− mice treated with 1 day of Dox. Protein concentrations were assessed using a Bradford Assay and protein loaded on a 4%-20% Tris/glycine SDSPAGE (Invitrogen) and electroblotted to PVDF membranes (0.45 um: Bio-Rad). Blots were blocked with 5% nonfat dry milk in TBST (10 mM Tris, pH 8, 150 mM NaCl, 0.1% Tween 20) and incubated with antibodies against total and phosphorylated Erk (Cell Signaling Technology) and proliferating cell nuclear antigen (PCNA) (Cell Signaling Technology). Blots were washed in TBST and incubated with goat anti-rabbit horse radish peroxidase conjugated (Calbiochem, EMD Biosciences) secondary antibodies and developed on film by chemiluminescence using the ECL Plus system (Amersham Biosciences). Densitometry was performed using the volume integration function on a Phosphorlmager software Imagequant 5.2 (Molecular Dynamics, Sunnyvale, Calif.) after scanning the films.

[8] = Rescue study of established fibrosis: body weight; assay type: in vivo; settings: CCSP/TGFα mice, 8 weeks total Dox, treatment during last 4 weeks, vs vehicle
Protocol: as §3, §1

[9] = test system: TGF-α-induced pulmonary fibrosis; assay: Prevention study: lung proliferation and matrix gene expression (Collagens I, III and Elastin); assay type: in vivo; settings: TGF-α transgenic mice, 4 weeks twice daily, vs vehicle
Protocol: A 4-week study was performed to evaluate the physiologic effects of MEK1/2 kinase inhibition with ARRY on TGF-α-induced pulmonary fibrosis. ARRY was administered to TGF-α transgenic mice; a model for studying pulmonary fibrosis. Endpoints included changes in lung mechanics, lung histology, lung cell proliferation and changes in matrix gene expression (Collagens I, III and Elastin). Differences in the parameters were compared between mice treated with and without ARRY. Mice which over express TGF-α that were treated with 4 weeks of vehicle (i.e. an innocuous or inert medication) developed severe lung fibrosis on histology and lung collagen measurements associated with severe lung restriction on lung mechanics. […] Together, these findings support that MEK1/2 inhibition prevents TGF-α/EGF-mediated pulmonary fibrosis, and is a possible pharmacological strategy to treat pulmonary fibrosis.

ERK1/2 = settings: previously shown; cited from earlier work
[10] = test system: TGF-α-induced pulmonary fibrosis; settings: previous study; cited from earlier work

## Cn1cnc2c(F)c(Nc3ccc(Br)cc3Cl)c(C(=O)NOCCO)cc21 [ARRY142886]
[1]
  TGF-α-induced cellular proliferation (epithelial and mesenchymal) in lung sections: dose-dependent inhibition of TGF-α-induced cellular proliferation
[2]
  pulmonary fibrosis measured by lung matrix expression on lung histology: reduced pulmonary fibrosis
[3]
  lung mechanics (airway resistance, airway and tissue elastance, compliance): no changes in lung mechanics
[3]; listed as ARRY
  lung mechanics (airway resistance, airway and tissue elastance, compliance): prevented TGFα-mediated increases in airway resistance, and airway and tissue elastance and decreases in compliance
[4]
  total lung collagen: prevents TGF-α-induced fibrosis as assessed by total lung collagen
[5]; CCSP/TGF-α mice, twice daily for 4 weeks from time of Dox, trichrome stain
  lung fibrosis on lung histology: prevents TGF-α-induced pulmonary fibrosis as demonstrated by lung histology
[5]; TGF-α transgenic mice, 4 weeks twice daily, vs vehicle
  lung fibrosis overall (4-week prevention study): complete prevention of lung fibrosis
[6]
  lung mechanics (compliance, airway resistance, elastance): improved lung mechanics
[7]
  phosphorylation of ERK1/2 in lung homogenates: inhibited increased phosphorylation of ERK1/2
[8]
  body weight loss: Body weight loss was attenuated
[9]
  lung proliferation and matrix gene expression: significantly reduced lung proliferation and matrix gene expression

## C=CCN(/C=C1/C(=O)O[C@H](COC)[C@@]2(C)C1=C(O)C(=O)C1=C2[C@H](OC(C)=O)C[C@]2(C)C(=O)CC[C@@H]12)CC=C [PX-866]
ERK1/2
  phosphorylation of ERK1/2 in treated TGF-α mice: remain phosphorylated

## C#Cc1cccc(Nc2ncnc3cc(OCCOC)c(OCCOC)cc23)c1 [erlotinib]
[10]
  fibrosis in the CCSP/TGF-α transgenic model: prevented fibrosis

## COc1cc2ncnc(Nc3ccc(F)c(Cl)c3)c2cc1OCCCN1CCOCC1 [gefitinib]
[10]
  fibrosis in the CCSP/TGF-α transgenic model: prevented fibrosis
